Measured values: patent US11442059B2, “Method for treating a chronic itch condition by administering small molecule MrgprX4 antagonists” (The Johns Hopkins University, priority 2017, dated 2022)

Columns and labels:
Mrgpra1-GFP = molecular target: T1, Mrgpra1-GFP (Mus musculus, UniProt Q91WW5); experiment: Receptor internalization assay, Mrgpra1-GFP HEK293 cells; type: cell-based; details: 37° C.
T1 construct: expressed in transfected cells
T1 sequence (Q91WW5 1-304): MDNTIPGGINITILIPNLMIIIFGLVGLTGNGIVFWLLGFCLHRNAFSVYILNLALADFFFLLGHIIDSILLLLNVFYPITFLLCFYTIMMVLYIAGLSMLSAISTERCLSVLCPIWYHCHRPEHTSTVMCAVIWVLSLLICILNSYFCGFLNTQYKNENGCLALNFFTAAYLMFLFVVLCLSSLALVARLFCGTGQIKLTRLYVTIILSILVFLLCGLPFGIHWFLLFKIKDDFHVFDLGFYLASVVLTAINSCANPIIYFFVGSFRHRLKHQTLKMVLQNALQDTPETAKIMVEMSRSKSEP
Description: (§1) To label the drug with red-fluorescent dye, […] of LTG was dissolved in 50 μl dimethyformamide (DMF) first, and further diluted with 450 μl reaction buffer (0.1M sodium bicarbonate buffer, pH9.0) to obtain LTG at a concentration of 7.8 mM. Then, 50 μl of Texas-red-conjugated sulfonyl chloride (Thermo Fisher Scientific, T1905) dissolved in DMF at 10 mg ml−1 was slowly added into LTG solution. The reaction was incubated at 4° C. for 1 hour with continuous stirring. The mixture was then diluted into cell culture medium for further use. LTG labeled with Texas Red dye can create bright red-fluorescence with excitation/emission maxima ˜595/615 nm. HEK293 cells stably expressing Mrgpra1-GFP, Mrgprc11-GFP or MRGPRX4-GFP fusion protein were grown in DMEM with 10% FBS. After 4-6 hours of serum starvation, cells were treated with either medium, dye alone, unlabeled LTG or Texas-Red-labeled LTG at 37° C. for 15 or 60 min. Cells were washed with PBS and fixed with 4% paraformaldehyde in PBS. The subcellular localization of Mrgpr-GFP or drug was visualized under a confocal fluorescence microscope with a 400× magnification (Zeiss LSM 700).

Mrgprc11-GFP = molecular target: T2, Mrgprc11-GFP (Mus musculus, UniProt Q8CIP3); experiment: Receptor internalization assay, Mrgprc11-GFP HEK293 cells; type: cell-based; details: data not shown
T2 construct: expressed in transfected cells
T2 sequence (Q8CIP3 1-322): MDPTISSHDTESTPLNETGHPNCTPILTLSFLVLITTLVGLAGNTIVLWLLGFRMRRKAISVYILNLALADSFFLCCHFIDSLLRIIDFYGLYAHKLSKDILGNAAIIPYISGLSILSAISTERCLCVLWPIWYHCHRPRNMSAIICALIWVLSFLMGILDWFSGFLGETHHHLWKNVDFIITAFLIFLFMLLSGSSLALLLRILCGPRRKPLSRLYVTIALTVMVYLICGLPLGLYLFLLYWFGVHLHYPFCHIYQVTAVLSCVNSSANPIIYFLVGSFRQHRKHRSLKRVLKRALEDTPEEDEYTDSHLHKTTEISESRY
Description: as §1

CD11c+MHC-IIhigh cells = experiment: Calcium imaging of sorted mouse splenocytes; type: cell-based; details: WT CD11c+MHC-IIhigh splenocytes
Description: In initial experiments, HEK293 cells were plated on 100 μg/ml poly-D-lysine coated glass cover slips, and transiently transfected with vector containing Mrgprs gene, after 24-48 hours of culture, cells were loaded with Fura 2-acetomethoxy ester calcium indicator (0.5 μM, Molecular Probes) along with pluronic F-127 dispersing agent (0.1%, Molecular Probes) for 30 minutes in the dark at 37° C., then washed with calcium imaging buffer (CIB; NaCl 125 mM, KCl 3 mM, CaCl2 2.5 mM, MgCl2 0.6 mM, HEPES 10 mM, glucose 20 mM, NaHCO3 1.2 mM, sucrose 20 mM, brought to pH 7.4 with NaOH). Drugs were added to Fura 2-loaded cells and intracellular free calcium was measured using 340 nm and 380 nm excitation wavelengths with emission measured at 520 nm with a microscope based imaging system (Nikon Eclipse TE200). Changes in emission fluorescence ratios at 340/380 nm excitation were continuously monitored at 1 second intervals. Later, experiments were performed using Mrgpra1-GFP, Mrgprc11-GFP and MRGPRX4-GFP stable cell lines to confirm the findings obtained from the transiently expressing cells.
To sort different cell types of splenocytes based on CD11c and MHC-II expression, single cell suspension of mouse splenocytes was prepared as above described. Then. […]

MRGPRX4 = MRGPRX4 (Homo sapiens, UniProt Q96LA9); experiment: Cell membrane chromatography, MRGPRX4/CMC column; type: binding; parameters: expressed in transfected cells; whole cells or crude membrane fraction
Description: CMC analysis was performed with a Shimadzu LC-2010A apparatus that consisted of pumps, degasser, autosampler, column oven, and a diode-array detector (Shimadzu, Kyoto, Japan). The data were acquired by the Lab-solution program (Shimadzu). The mobile phase consisted of phosphate-buffered saline (PBS; 5 mM, pH 7.4) and was delivered at a flow rate of 0.2 ml/min. The stock solutions (100 μM) of lamotrigine were prepared by separately dissolving the standard drugs in methanol. Standard solutions at various concentrations were prepared by diluting the stock solutions with the mobile phase. The MRGPRX2/CMC and MRGPRX4/CMC column was prepared as follows. Briefly, MRGPRX4-expressed HEK293 cells (1×10^8) were harvested and centrifuged (1000 g, 10 min, at 4° C.). Cells were washed with physiological saline (pH=7.4) by centrifugation at 1000 g for 10 min at 4° C. […] KD value of lamotrigine was determined by means of the MRGPRX4/CMC system as follows. […] This mobile phase with different concentrations of each compound was separately pumped through the MRGPRX4/CMC column at a flow rate of 0.2 ml min^−1 under the gradient program and the breakthrough curves of the compound with different concentrations were recorded. […] Moreover, KD could be determined by calculating the ratio of the intercept to the slope, and [R]s was obtained from the inverse of the intercept.

Chain of MRGPRX4 (Q96LA9 whole entry): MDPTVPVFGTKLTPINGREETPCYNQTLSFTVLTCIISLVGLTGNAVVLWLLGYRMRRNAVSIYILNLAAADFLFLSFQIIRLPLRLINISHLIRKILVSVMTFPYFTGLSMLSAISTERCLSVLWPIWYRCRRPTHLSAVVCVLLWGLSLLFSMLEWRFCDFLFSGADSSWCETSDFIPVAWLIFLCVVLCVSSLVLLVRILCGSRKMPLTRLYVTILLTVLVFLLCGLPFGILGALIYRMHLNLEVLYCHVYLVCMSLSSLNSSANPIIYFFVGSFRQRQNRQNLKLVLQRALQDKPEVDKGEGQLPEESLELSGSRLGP

Nc1nnc(-c2cccc(Cl)c2Cl)c(N)n1 [LTG, Lamotrigine]
internalization of Mrgpra1-GFP (Mrgpra1-GFP): can induce the internalization
internalization of Mrgprc11-GFP (Mrgprc11-GFP): did not induce the internalization
cells responding (Ca2+ imaging) (CD11c+MHC-IIhigh cells): approximately 5%
Retention time on MRGPRX4/CMC column (MRGPRX4; affinity chromatography elution profile): 16.7 min
Kd (MRGPRX4; regression 1/[LR]s versus 1/[L]m, n=5, read-out: KD (MRGPRX4/CMC breakthrough curves)): 417 nM
